Earlier results in US9555003B2, “Oral solid formulation of compound anti-tubercular drug and preparation method thereof” (priority 2011, dated 2017).
In brackets after ≈: the same amount, converted by molar mass.

What was measured:
[1] = not given; remark: listed apart in the source

| SMILES | solubility in water | Vd ([1]; in vivo) | protein binding rate ([1]; in vivo) | oral absorption rate ([1]; oral) | time to peak serum drug concentration after administration ([1]; oral) | solubility in ethanol | solubility in ethyl ether | intra-cellular concentration for inhibiting tubercle bacillus relative to extracellular concentration (tubercle bacillus; folds lower than the extracellular concentration) | concentration at which tubercle bacillus is eliminated (tubercle bacillus; tubercle bacillus) | minimum inhibitory concentration (tubercle bacillus; tubercle bacillus) |
| --- | --- | --- | --- | --- | --- | --- | --- | --- | --- | --- |
| CC[C@H](CO)NCCN[C@H](CC)CO.Cl.Cl [Ethambutol hydrochloride] | easily soluble |  |  |  |  |  |  |  |  |  |
| NNC(=O)c1ccncc1 [Isoniazid, 4-pyridylcarbonylhydrazine] | easily soluble | 0.61 ± 0.11 L/kg | very low | 90% | 1 to 2 h | slightly soluble | very slightly soluble |  |  |  |
| NC(=O)c1cnccn1 [Pyrazinamide] | slightly soluble |  |  |  |  | slightly soluble | very slightly soluble | 10 folds | 50 µg/mL | 12.5 µg/mL (≈ 102 µM) |
| CO[C@H]1/C=C/O[C@@]2(C)Oc3c(C)c(O)c4c(O)c(c(/C=N/N5CCN(C)CC5)c(O)c4c3C2=O)NC(=O)/C(C)=C\C=C\[C@H](C)[C@H](O)[C@@H](C)[C@@H](O)[C@@H](C)[C@H](OC(C)=O)[C@@H]1C [Rifampicin] | poorly soluble |  |  |  |  |  |  |  |  |  |
